{"source": "patent US20030157704A1", "about": "“Reagents and methods for identifying and modulating expression of genes regulated by CDK inhibitors” (priority 2001, published 2003)", "key": {"p21": {"system": "p21", "test": "p21 protein level after IPTG induction (ELISA)", "type": "cell-based, human", "procedure": "FIG. 2A is a graph of the time course of p21 induction after the addition of 50 μM IPTG, where p21 levels were determined by ELISA.\np21 expression from the LNp21CO3 vector in HT1080 p21-9 cells was induced by culturing the cells in DMEM medium containing 10% fetal calf serum (Hyclone, Logan, Utah) and IPTG. […] Upon removing the cells from IPTG-containing media, p21 expression fell about as rapidly as it had risen, returning to pre-induction levels at about 24 hours after IPTG was removed (FIG. 2B)."}, "HT1080 p21-9 cells": {"system": "HT1080 p21-9 cells", "test": "Cell cycle distribution by FACS analysis of DNA content", "type": "cell-based, human", "settings": "24 hrs of IPTG treatment", "procedure": "Cell cycle distribution was determined using FACS analysis of DNA content after staining with propidium iodide as described by Jordan et al. (1996, Cancer Res. 56: 816-825) using Becton Dickinson FACSort. Cell cycle distribution stabilized after 24 hrs of IPTG treatment. By this time, 42-43% of IPTG-treated cells were arrested in G1 and G2, respectively, and about 15% of the cells were arrested with S-phase DNA content. IPTG-treated HT1080 p21-9 cells also developed morphological senescence markers (enlarged and flattened morphology and increased granularity), as well as SA-β-gal activity (Chang et al., 1999, ibid.)."}, "C8 cells": {"system": "C8 cells", "test": "Apoptosis assay in serum-starved C8 cells", "type": "cell-based, mouse", "settings": "addition of IPTG by itself", "procedure": "To verify the induction of secreted mitogenic and anti-apoptotic factors by p21, conditioned media from IPTG-treated HT1080 p21-9 cells were tested to investigate whether they would have an effect on cell growth and apoptosis. In these experiments, conditioned media were prepared by plating 10^6 HT1080 p21-9 cells per 15 cm plate in the presence of DMEM/10% FCS. The next day, IPTG was added to a final concentration of 50 μM, and this media was replaced three days later with DMEM supplemented with 0.5% FCS and 50 μM IPTG. Two days later (days 3-5 of IPTG treatment), this conditioned media was collected and stored at 4° C. up to 15 days before use. Control media were prepared by adding IPTG-free DMEM/0.5% FCS to untreated cells grown to the same density as IPTG-treated cells and collecting the media two days thereafter.\nThe effect of this conditioned media on apoptosis was also determined. […] Apoptosis was analyzed by plating 3×10^5 C8 cells per 6-cm plate, and replacing the media on the following day with fresh media supplemented with 0.4% serum or with conditioned media (no fresh serum added). DNA content analysis and DAPI staining were carried out after 24 hrs and 48 hrs, and relative cell numbers were measured by methylene blue staining (Perry et al., 1992, Mutat. Res. 276: 189-197) after 48 hrs in low-serum media."}, "NFκB-dependent promoter": {"system": "NFκB-dependent promoter", "test": "Transient transfection of pNFkB-Luc into HT1080 p21-9 cells, firefly luciferase", "type": "cell-based, human", "settings": "different concentrations of IPTG", "from_the_text": "To determine if IPTG-inducible p21 expression in HT1080 p21-9 cells stimulates the transcriptional activity of NFκB, we have used transient transfection assays to investigate the effect of p21 induction on luciferase expression from the plasmid pNFkB-Luc, commercially available from Stratagene. This plasmid expresses firefly luciferase from an artificial promoter containing five tandemly repeated NFκB consensus sequences. We have also generated by PCR a version of the same promoter that contains only one NFκB consensus sequence using primers identified as SEQ ID Nos. 80 and 83. The sequences of these two promoters are identified as SEQ ID NOs. 78 and 79.\nThe ability of p21 to induce these promoters was tested by transient transfection assays, as described in Example 8, using different concentrations of IPTG that induce p21 to different levels.\nThis plasmid is referred to below as IKK. To determine the effect of p300/CBP inhibition on luciferase expression from pNFkB-Luc, the latter plasmid was similarly mixed in another assay with a vector expressing a truncated gene for adenoviral E1A protein with a C-terminal deletion {ΔCR2 (120-140)}. […] The E1AΔCR2 and E1AΔN/ΔCR2 constructs were provided by Dr. V. Ogryzko (NICHHD, NIH). […] The firefly luciferase activity was measured and normalized to Renilla luciferase activity measured (in the absence of IPTG) in each transfected sample."}, "HT1080 p16-5 cells": {"system": "HT1080 p16-5 cells", "test": "Cell cycle distribution by FACS analysis of DNA content", "type": "cell-based, human", "settings": "50 μM IPTG, 24 hrs", "procedure": "This cell population was subcloned, and 20 clonal cell lines were isolated and tested for IPTG-inducible growth inhibition. Cell line showing the strongest growth inhibition was designated HT1080 p16-5. This cell line has been deposited on Jan. 31, 2002 in the American Type Culture Collection (A.T.C.C.), Manassas, Va. and given Accession Number PTA-4020. […] Fractions of cells in different phases of the cell cycle were determined using FACS analysis of DNA content after staining with propidium iodide as described by Jordan et al. (1996, Cancer Res. 56:816-825) using Becton Dickinson FACSort. Cell cycle distribution stabilized after 24 hrs of IPTG treatment, by which time 93% of IPTG-treated cells were arrested in G1. Such G1 arrest is expected from the inhibition of CDK4/6 by p16."}}, "data": [{"smiles": "CC(C)S[C@@H]1O[C@H](CO)[C@H](O)[C@H](O)[C@H]1O", "note": "[IPTG, isopropyl-β-thiogalactoside]", "values": [{"measurement": "time of peak p21 expression post-induction", "setting": "p21; 50 μM IPTG", "result": "about 24 hours"}, {"measurement": "increase of p21 levels in IPTG-treated cells", "setting": "p21; HT1080 p21-9 cells", "result": "15-20 fold"}, {"measurement": "cells arrested in G1 and G2, respectively", "setting": "HT1080 p21-9 cells", "result": "42-43%"}, {"measurement": "cells arrested with S-phase DNA content", "setting": "HT1080 p21-9 cells", "result": "about 15%"}, {"measurement": "apoptosis in C8 cells", "setting": "C8 cells", "result": "no effect"}, {"measurement": "induction of promoters containing five or one NFκB site", "setting": "NFκB-dependent promoter", "result": "dose-dependent induction"}, {"measurement": "cells arrested in G1", "setting": "HT1080 p16-5 cells", "result": 93, "unit": "%"}]}]}
